Peptide text beside a SMILES is read from it. * marks the point of attachment. Cbz = O=C(OCc1ccccc1)*
Tests used:
PC3 and SK-MEL-28 cells = assay: Lysosome / proteasome inhibition, western analysis of PD-L1 protein levels; type: cell-based; settings: for PD-L1 protein levels: both lines
Procedure: Next, potential differences in protein degradation were evaluated. The two main pathways for protein degradation are the lysosome and the proteasome. The small molecule Bafalomycin A1 (BafA1) inhibits lysosomal activity by blocking the V-ATPase hydrogen pump and thus acidification of the lysosome. An increase in the protein LC3B, a known target of the lysosome, confirmed effectiveness of the small molecule on PC3 and SK-MEL-28 cells. However, levels of PD-L1 in both lines were unaltered, implying little turnover of PD-L1 by the lysosome in these cells. The small molecule MG132 suppresses proteasome activity by blocking the 26s proteasome complex and consequentially proteolysis. The proteasome recognizes ubiquitin side chains on its targets. An increase in the presence of ubiquitinated proteins confirmed the effectiveness of MG132 on the two cells lines.

cancer cells = assay: IFNγ treatment of cancer cells, PD-L1 in cellular and 100 k g fractions and vesicle number; type: cell-based
Excerpt: In vivo, tumor cells can mediate adaptive resistance by up-regulating PD-L1 in response to interferon-gamma (IFNγ) released by the cytotoxic T lymphocytes within the tumor bed. Therefore, it was explored whether, in addition to up-regulating cellular PD-L1, IFNγ may increase the secretion of PD-L1. Treatment of cancer cells with IFNγ led to an increase in PD-L1 in both the cellular and 100 k g fractions. […] Thus, similar to the cell surface membrane PD-L1, extracellular vesicular PD-L1 increased in response to IFNγ.

Compound | protein LC3B, known target of the lysosome (PC3 and SK-MEL-28 cells; PC3 and SK-MEL-28 cells) | PD-L1 protein levels (PC3 and SK-MEL-28 cells; PC3 and SK-MEL-28 cells) | presence of ubiquitinated proteins (PC3 and SK-MEL-28 cells; PC3 and SK-MEL-28 cells) | PD-L1 levels (PC3 and SK-MEL-28 cells; SK-MEL-28 cells only, not PC3) | PD-L1 in both the cellular and 100 k g fractions (cancer cells) | number of vesicles secreted (cancer cells)
CO/C1=C\C(C)=C\[C@@H](C)[C@@H](O)[C@@H](C)C/C(C)=C/C=C/[C@H](OC)[C@@H]([C@@H](C)[C@@H](O)[C@H](C)[C@@]2(O)C[C@@H](O)[C@H](C)[C@@H](C(C)C)O2)OC1=O [BafA1, Bafalomycin A1] | increase | unaltered | – | – | – | –
CC(C)C[C@@H](C=O)NC(=O)[C@H](CC(C)C)NC(=O)[C@H](CC(C)C)NC(=O)OCc1ccccc1 [MG132] (Cbz-Leu-Leu-Leu-aldehyde) | – | minimally affected | increase | slightly up | – | –
interferon-gamma [IFNγ, interferon-gamma released by cytotoxic T lymphocytes] | – | – | – | – | increase | did not increase
